Where a SMILES comes first, the peptide text is derived from it. [ ]: non-standard residue; d: D form. Phe(4-NO2) = N[C@@H](Cc1ccc([N+](=O)[O-])cc1)C(=O)O; Bpa = N[C@@H](Cc1ccc(C(=O)c2ccccc2)cc1)C(=O)O
How the values were obtained:
[1] = tested on: HIF-driven expression of YFP in T-REx-293 reporter cell line; experiment: HRE-YFP reporter assay in hypoxia; assay type: cell-based, human; details: T-Rex-293 HRE-YFP reporter
Description: Following in vitro characterization and optimization of binding, we next assessed the effect of our cyclic peptides in mammalian cells. A cell line with a stably integrated reporter was constructed, in which the expression of yellow fluorescent protein (YFP) was placed under the control of a HRE. Thus, hypoxia would be expected to increase YFP expression (and subsequent fluorescence) in these cells, whereas treatment with a cell-permeable HIF inhibitor would be expected to reduce this fluorescence signal. A fusion cassette was designed containing the YFP gene preceded by three copies of the HRE sequence. This cassette was stably integrated into T-REx-293 cells as previously described.[12] […] The effect of this compound on the viability of T-Rex-293 was assessed with no effect observed at doses up to 75 μM (Figure S9a). […] It should be noted that the relative activity of each compound in this assay will be a combination of its cell permeability and HIF-inhibiting activity. […] We therefore continued to further characterize the cell activity of the 4-iodo-phenylalanine derivative. […]
Generation of HRE-eYFP integrated cell line
The Flp-In System (Fisher) was used to generate a constitutive expression cell line that expresses eYFP under the control of the VEGF HRE. The coding sequence of the yellow fluorescent protein (eYFP) was cloned downstream of the VEGF HRE sequence in the pcDNA5 plasmid, such that the entire cassette was under the regulation of a Tet-On gene expression system. The plasmid was transfected into a human embryonic kidney cell line (Flp-In™-293) and integrated using the manufacturer’s protocol.
Activity Assessment using Flp-In-HRE-eYFP cell line
The Flp-In-HRE-eYFP cells were plated on 24-well plates at 80% confluency and incubated overnight under normoxic conditions. The cells were then treated with different concentrations of compound and incubated for 18 hours under hypoxic conditions. After treatment, the cells were washed with PBS and lysed to extract the total cellular protein. The cell extract was cold centrifuged for 20 minutes at 14,000 RPM. An equal amount of the supernatant from each treatment was plated on a 96-well plate, and the emission of eYFP was measured using a microplate reader. […]

HIF-1α PAS-B domain = biological target: T1, HIF-1α PAS-B domain (Homo sapiens, UniProt Q16665); experiment: MST binding to the PAS-B domain of HIF-1α; details: MST; mean ± SEM, n = 2 (n = 1 for most C1 analogues, n = 3 in Figure S2); read-out: KD for HIF-1α PAS-B
T1 construct: made in house
Method: (§1) All reagents were purchased from Fisher Scientific or Sigma Aldrich UK unless specified otherwise.
(§2) Restriction enzymes and microbiology reagents were purchased from New England Biolabs Inc., Fisher Scientific (UK) or Promega (UK) and were used as directed by the manufacturer. Primers and oligonucleotides were synthesised by Integrated DNA Technologies (UK). DNA sequencing was carried out by Eurofins MWG Operon (Germany).
(§3) Construction of the RTHS and SICLOPPS library, screening, purification of recombinant HIF proteins, and the PLA was conducted as previously described in Miranda et al., J. Am. Chem. Soc., 2013, 135(28); […]
(§4) Protein labelling with MST dye
(§5) Protein was buffer exchanged from storage buffer into labelling buffer (0.1 M NaHCO3, pH 8.5) using a PD spintrap G-25 column (GE healthcare). The protein concentration was then adjusted to 20 µM.
(§6) The commercially sourced MST dye (NanoTemper) was prepared as a 470 µM solution in DMSO, which was then further diluted to 60 µM using labelling buffer. To the protein solution was added an equal volume of dye solution, and the labelling reaction was left for 1 hour in the dark at room temperature.
(§7) The labelled protein was separated from unreacted dye by elution through a PD minitrap G-25 column (GE healthcare). Labelled protein was then aliquoted and stored at -80 °C. Extent of labelling was measured by the absorbance obtained using the UV-vis mode on a NanoDrop ND-1000 Spectrophotometer (NanoDrop Technologies, USA).
(§8) Labelled protein was thawed on ice and diluted to 50 nM in assay buffer containing 50 mM Tris pH 8.0, 150 mM NaCl, 5% (v/v) glycerol, 1 mM TCEP and 0.05% TWEEN-20. The protein solution was then centrifuged at 12000 rpm for 15 minutes at 4 °C and left on ice. Compounds were prepared and serially diluted in DMSO at 10x assay concentration, before diluting to 2x assay concentration in assay buffer.
(§9) The 2x compound solutions were then mixed 1:1 (v/v) with 50 nM labelled protein solution and left to incubate for 1 hour at room temperature. Solutions were then loaded into Monolith NT.115 Premium Capillaries (NanoTemper) and placed in the sample tray. MST experiments were carried out

HIF-2α PAS-B domain = biological target: T2, HIF-2α PAS-B domain (Homo sapiens, UniProt Q99814); experiment: MST binding to the PAS-B domain of HIF-2α; details: MST; mean (n = 2) ± SEM
T2 construct: made in house
Method: as §1, §2, §3, §4, §5, §6, §7, §8, §9

[2] = tested on: RCC associated with VHL disease; set-up: method as in PMID 34453144; details: phase 2 clinical trial, all partial responses; cited from earlier work
[3] = tested on: CAIX and VEGF genes in Panc-1 cells; experiment: qPCR of hypoxia-response genes in Panc-1 cells; assay type: cell-based; details: hypoxic Panc-1 cells, 2 μM
Method: (§10) The effect of our lead inhibitor on hypoxia-response signaling was measured by qPCR in cancer cell lines. Cells were treated with either 2 μM of an analogue of the HIF-2-specific inhibitor belzutifan, PT2399 (control), or 50 μM of cyclo-CRLII(4-iodo)F, incubated in hypoxia for […], and the levels of the hypoxia-response genes CAIX([41],[42]) and VEGF([43]) were measured by qPCR. We observed a 51% drop in CAIX transcription and a 43% drop in VEGF transcription in hypoxic MCF-7 (breast cancer) cells treated with 50 μM of cyclo-CRLII(4-iodo)F versus hypoxic MCF-7 cells treated with DMSO only (Figure 6e). […] We also observed a 49% drop in CAIX expression in hypoxic HeLa (cervical cancer) cells treated with cyclo-CRLII(4-iodo)F (Figure S9b). […] We observed a 35% drop in HIF-2-driven VEGF transcription in 786-O cells treated with 50 μM of cyclo-CRLII(4-iodo)F compared to a 50% decrease in 786-O cells treated with PT2399. […]
(§11) Realtime PCR (qPCR) Assay
(§12) Cells were plated on 6cm dishes at 80% confluency and incubated overnight under normoxic conditions. The cells were then treated with compound and incubated for 18 hours in hypoxic conditions. After treatment, the cells were washed with PBS and lysed under hypoxic conditions. The total RNA was extracted from the cells using a commercial RNA extraction kit (Fisher Scientific) following the manufacturer's instructions. A commercial reverse transcription kit (Promega) was used to generate cDNA. The MyTaq™ Mix master mix and appropriate primers targeting CAIX and VEGF were used to perform the qPCR reaction using a qPCR machine (Bio-Rad).

[4] = tested on: CAIX and VEGF genes in MCF-7 cells; experiment: qPCR of hypoxia-response genes in MCF-7 cells; assay type: cell-based; details: hypoxic MCF-7 cells, 2 μM
Method: as §10, §11, §12

VEGF gene in 786-O cells = experiment: qPCR of HIF-2-driven VEGF in 786-O cells; assay type: cell-based; details: 2 μM
Method: as §10, §11
as §12, with “A commercial reverse transcription kit (Promega) was used to generate cDNA. The MyTaq™ Mix master mix and appropriate primers targeting CAIX and VEGF were used to perform the qPCR reaction using a qPCR machine (Bio-Rad).” left out

T1 sequence (Q16665 238-349 limits assumed): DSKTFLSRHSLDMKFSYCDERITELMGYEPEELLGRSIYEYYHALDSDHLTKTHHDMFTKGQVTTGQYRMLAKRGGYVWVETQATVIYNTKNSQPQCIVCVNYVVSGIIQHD
T2 sequence (Q99814 240-350 limits assumed): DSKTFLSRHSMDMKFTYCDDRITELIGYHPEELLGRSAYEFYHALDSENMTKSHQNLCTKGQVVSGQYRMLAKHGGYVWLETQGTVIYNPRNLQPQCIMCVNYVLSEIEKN

Kd (HIF-1α PAS-B domain)	Kd (HIF-2α PAS-B domain)	SMILES	also measured
		CC[C@H](C)[C@@H]1NC(=O)[C@H](CC(C)C)NC(=O)[C@H](CCCNC(=N)N)NC(=O)[C@H](CS)NC(=O)[C@H](Cc2ccc(C(=O)c3ccccc3)cc2)NC(=O)[C@H]([C@@H](C)CC)NC1=O [(4-Bz)F, cyclo-CRLII(4-Bz)F] (cyclo([Bpa]CRLII))	relative activity among the 9 most potent cyclo-CRLIIF derivatives on YFP expression [1]: most active
80.2 ± 27.3 µM	> 100 µM	CC[C@H](C)[C@@H]1NC(=O)[C@H](CC(C)C)NC(=O)[C@H](CCCNC(=N)N)NC(=O)[C@H](CS)NC(=O)[C@H](C)NC(=O)[C@H]([C@@H](C)CC)NC1=O [cyclo-CRLIIA]	
> 100 µM	> 100 µM	CC[C@H](C)[C@@H]1NC(=O)[C@H](CC(C)C)NC(=O)[C@H](CCCNC(=N)N)NC(=O)[C@H](C)NC(=O)[C@H](Cc2ccccc2)NC(=O)[C@H]([C@@H](C)CC)NC1=O [cyclo-ARLIIF] (cyclo(ARLIIF))	
> 100 µM	> 100 µM	CC[C@H](C)[C@@H]1NC(=O)[C@H](CC(C)C)NC(=O)[C@H](CCCNC(=N)N)NC(=O)[C@H](CS)NC(=O)[C@H](Cc2ccccc2)NC(=O)[C@H](C)NC1=O [cyclo-CRLIAF]	
3.3 ± 0.1 µM		CC[C@H](C)[C@@H]1NC(=O)[C@H](CC(C)C)NC(=O)[C@H](CCCNC(=N)N)NC(=O)[C@H](CS)NC(=O)[C@H](Cc2ccc([N+](=O)[O-])cc2)NC(=O)[C@H]([C@@H](C)CC)NC1=O [NO2, cyclo-CRLII(4-NO2)F] (cyclo(CRLII[Phe(4-NO2)]))	relative activity among the 9 most potent cyclo-CRLIIF derivatives on YFP expression [1]: least active
		CS(=O)(=O)c1ccc(Oc2cc(F)cc(C#N)c2)c2c1[C@H](O)[C@H](F)[C@@H]2F [belzutifan]	patients responded [2]: 49%
		N#Cc1cc(F)cc(Oc2ccc(S(=O)(=O)C(F)F)c3c2CC(F)(F)[C@H]3O)c1 [PT2399, reference compound]	drop in CAIX transcription [3]: 23%; drop in VEGF transcription [3]: 53%; inhibition of hypoxia-driven expression of CAIX [4]: did not inhibit; inhibition of hypoxia-driven expression of VEGF [4]: did not inhibit; decrease in HIF-2-driven VEGF transcription (VEGF gene in 786-O cells): 50%
30.6 ± 0.3 µM	12.5 ± 0.4 µM	CC[C@H](C)[C@@H]1NC(=O)[C@H](CC(C)C)NC(=O)[C@H](C)NC(=O)[C@H](CS)NC(=O)[C@H](Cc2ccccc2)NC(=O)[C@H]([C@@H](C)CC)NC1=O [cyclo-CALIIF] (cyclo(ALIIFC))	

— publication PMC10996005, “Identification and Development of Cyclic Peptide Inhibitors of Hypoxia Inducible Factors 1 and 2 That Disrupt Hypoxia-Response Signaling in Cancer Cells” (Journal of the American Chemical Society, 2024)
